According to US20260217761A1, “ANTIMICROBIAL PEPTIDE RICH IN TRYPTOPHAN AND HAVING SELF-ASSEMBLY PROPERTIES, AND USE THEREOF” (NANOQURE BIOTECH (SHENZHEN) CO., LTD., priority 2022, published 2026):
≈ marks a conversion by molar mass, not a printed value. Where “and” joins values, the source holds several entries; their conditions need not be identical. Equal entries are not always repeated. Where two headings read alike, the source gives them in different places. Residues, ends and D or L forms follow the SMILES beside them. No end group written: not given here.

Key:
IL-6 = IL-6 content in the skin tissue at the infected site; assay type: in vivo; conditions: mice
various bacteria = experiment: MIC against various bacteria (broad-spectrum antimicrobial activity); assay type: cell-based
Experimental: • A. The antimicrobial peptide was prepared into a certain stock solution for use. 0.01% acetic acid (containing 0.2% BSA) was used as the diluent, and a series of gradient antimicrobial peptide solutions were prepared sequentially by a two-fold dilution method. • B. 100 μL of the above-mentioned antimicrobial peptide stock solution was taken and placed in a 96-well cell culture plate. Then, an equal volume of the test bacterial solution (approximately 10^5 cells/mL) was added to each well. A positive control (containing the bacterial solution but no antimicrobial peptide) and a negative control (containing neither bacterial solution nor the peptide) were included, respectively. The test bacterial species include Pseudomonas aeruginosa (Pseudomonas aeruginosa PL1, Pseudomonas aeruginosa SP1), Staphylococcus aureus (Staphylococcus aureus 544, Staphylococcus aureus 103), Escherichia coli (Escherichia coli 729, Escherichia coli 112), Klebsiella Pneumoniae (Klebsiella Pneumoniae 106, Klebsiella Pneumoniae 727), Streptococcus pneumonia 383, Acinetobacter baumannii (Acinetobacter baumannii 946, Acinetobacter baumannii 780) (FIG. 1), or Pseudomonas aeruginosa (Pseudomonas aeruginosa PAO1), Staphylococcus aureus (Staphylococcus aureus SP1), and a mixed solution of the above two bacteria (FIG. 2). • C. The culture plate was placed in a constant temperature incubator at 37° C. for 20 h. The minimum inhibitory concentration is determined as the condition where no turbidity is observed at the bottom of the well with naked eyes.
• A. The polypeptide Z4 composed entirely of dextrorotatory amino acids is called the dextrorotatory isomer of polypeptide Z4. The polypeptide Z4-D was prepared into a certain stock solution for use. […] The minimum inhibitory concentration is determined as the condition where no turbidity is observed at the bottom of the well with naked eyes.

[1] = test system: P. aeruginosa in the catheter biofilm; experiment: In vivo bactericidal activity in the catheter biofilm, P. aeruginosa; conditions: mice, versus PBS control
[2] = test system: S. aureus in the catheter biofilm; experiment: In vivo bactericidal activity in the catheter biofilm, S. aureus; conditions: mice, versus PBS control
P. aeruginosa = experiment: Killing curve (bactericidal activity) against P. aeruginosa; assay type: cell-based, Pseudomonas aeruginosa
Experimental: (§1) • A. To determine the bactericidal ability of polypeptide Z4, Pseudomonas aeruginosa and Staphylococcus aureus were suspended in PBS until OD600 nm=0.4, then diluted 1000 times with fresh PBS and mixed in equal volumes. Polypeptide Z4 was added to the bacterial suspension at concentrations of 1×MIC and 2×MIC. […] After incubation at 37° C. for 18 h, the single colonies of the microorganisms were counted. The experiment was repeated 3 times and the average value was calculated.

[3] = test system: mixed bacterial solution of Pseudomonas aeruginosa and Staphylococcus aureus; assay type: cell-based, Pseudomonas aeruginosa PAO1 and Staphylococcus aureus SP1
Experimental: • A. The antimicrobial peptide was prepared into a certain stock solution for use. 0.01% acetic acid (containing 0.2% BSA) was used as the diluent, and a series of gradient antimicrobial peptide solutions were prepared sequentially by a two-fold dilution method. • B. 100 μL of the above-mentioned antimicrobial peptide stock solution was taken and placed in a 96-well cell culture plate. Then, an equal volume of the test bacterial solution (approximately 10^5 cells/mL) was added to each well. A positive control (containing the bacterial solution but no antimicrobial peptide) and a negative control (containing neither bacterial solution nor the peptide) were included, respectively. […] The culture plate was placed in a constant temperature incubator at 37° C. for 20 h. The minimum inhibitory concentration is determined as the condition where no turbidity is observed at the bottom of the well with naked eyes.

S. aureus = experiment: Killing curve (bactericidal activity) against S. aureus; assay type: cell-based, Staphylococcus aureus
Experimental: as §1

[4] = test system: mixed biofilm of P. aeruginosa and S. aureus; experiment: Anti-biofilm activity on formed mixed biofilm (crystal violet); assay type: cell-based; conditions: for removal effect on the formed biofilm: 3 h
Experimental: • B. To investigate the anti-biofilm activity of polypeptide Z4, P. aeruginosa and S. aureus were grown overnight at 37° C. in tryptic soy broth medium until the logarithmic phase, and then diluted to 1×10^7 CFU/mL and 1×10^6 CFU/mL respectively, and mixed in equal amounts to prepare a mixed bacterial culture. Subsequently, 100 μL of the mixed bacterial suspension was incubated at 37° C. for 24 h to obtain a mixed biofilm. Then, antimicrobial peptides with a final concentration of 2-32 μM were added to a 96-well plate. After incubation at 37° C. for 3 h, the medium was discarded, and the 96-well plate was washed three times with PBS (pH=7.2). After drying at room temperature, 200 μL/well of […] crystal violet staining solution was added to the plate. After incubation at 37° C. for 30 minutes, it was rinsed three times with PBS. After air drying at room temperature, 200 μL/well of 95% ethanol was added and incubated at 37° C. for 30 min, and the absorbance was measured at 595 nm. A total of 3 experiments were set up, and each experiment was repeated 3 times.

[5] = Self-assembly observed by scanning electron microscopy (SEM); assay type: physicochemical; conditions: in phosphate-buffered saline (PBS) (pH=7.2)
Experimental: Without being bound by any theory, it is deduced that the reason why WW++W++WW has better self-assembly activity and MIC than +++WWW+++ is based on the WW at both ends of the peptide, rather than the number of positively charged amino acids (K and/or R). • B. Observation of polypeptide Z4 by scanning electron microscopy (SEM): To prepare SEM samples for observing the self-assembly of the polypeptide, 10 μL of the polypeptide was placed on tin foil that had been ultrasonically treated for 30 min.
After drying, the samples were sputter-coated with gold. All samples were observed using Gimini SEM 500.

inflammatory cells = experiment: Inflammatory cells in sections of skin tissue at the infected site; assay type: in vivo; conditions: mice, versus PBS control
[6] = test system: mixed bacterial solution of P. aeruginosa PAO1 and S. aureus SP1; assay type: cell-based
Experimental: After ultrasonic treatment of polypeptide Z4 and polypeptide Z4-D for 30 min, they were placed at room temperature for 2 h to promote their self-assembly. Subsequently, proteinase K with a final concentration of 0.2 g/mL was mixed with the polypeptide solution (final concentration of 640 μM) and incubated at 37° C. for 0, 30, 60, 90 or 120 min respectively. Then, according to the scheme described in Example 2, the MICs of the polypeptides against the mixed bacterial solution of P. aeruginosa PAO1 and S. aureus SP1 under different treatment conditions were determined.

NCCCC[C@H](NC(=O)[C@H](CCCCN)NC(=O)[C@H](Cc1c[nH]c2ccccc12)NC(=O)[C@H](CCCCN)NC(=O)[C@H](CCCCN)NC(=O)[C@H](Cc1c[nH]c2ccccc12)NC(=O)[C@@H](N)Cc1c[nH]c2ccccc12)C(=O)N[C@@H](Cc1c[nH]c2ccccc12)C(=O)N[C@@H](Cc1c[nH]c2ccccc12)C(N)=O [Z4, WWKKWKKWW-NH2] (H-WWKKWKKWW-NH2; N-terminus assumed)
IL-6 content in the skin tissue at the infected site (IL-6; Biofilm + Z4): 110.6228 pg/g and 89.73 pg/g and 91.09 pg/g and 95.94 pg/g and 137.9124 pg/g and 127.2606 pg/g and 88.31 pg/g and 94.64 pg/g | level of IL-6 in the skin tissue (IL-6; versus PBS control): reduced | broad-spectrum antimicrobial activity (various bacteria): good broad-spectrum antimicrobial activity | number of Pseudomonas aeruginosa colonized in the catheter [1]: significantly reduced | number of Staphylococcus aureus colonized in the catheter [2]: significantly reduced | time within which all P. aeruginosa were killed (P. aeruginosa; 1×MIC (4 μM)): ≤ 60 min | survival number of P. aeruginosa (P. aeruginosa; 1×MIC, 0 min): 134000 CFU/mL and 112000 CFU/mL and 104000 CFU/mL | survival number of P. aeruginosa (P. aeruginosa; 1×MIC, 60 min): 0 CFU/mL | survival number of P. aeruginosa (P. aeruginosa; 1×MIC, 120 min): 0 CFU/mL | survival number of P. aeruginosa (P. aeruginosa; 1×MIC, 180 min): 0 CFU/mL | survival number of P. aeruginosa (P. aeruginosa; 1×MIC, 240 min): 0 CFU/mL | survival number of P. aeruginosa (P. aeruginosa; 1×MIC, 300 min): 0 CFU/mL | time within which all P. aeruginosa were killed (P. aeruginosa; 2×MIC (8 μM)): ≤ 30 min | survival number of P. aeruginosa (P. aeruginosa; 2×MIC, 0 min): 186000 CFU/mL and 136000 CFU/mL and 132000 CFU/mL | survival number of P. aeruginosa (P. aeruginosa; 2×MIC, 30 min): 0 CFU/mL | survival number of P. aeruginosa (P. aeruginosa; 2×MIC, 60 min): 0 CFU/mL | survival number of P. aeruginosa (P. aeruginosa; 2×MIC, 120 min): 0 CFU/mL | survival number of P. aeruginosa (P. aeruginosa; 2×MIC, 180 min): 0 CFU/mL | survival number of P. aeruginosa (P. aeruginosa; 2×MIC, 240 min): 0 CFU/mL | bactericidal rate against P. aeruginosa compared with gentamicin (P. aeruginosa; compared with gentamicin): faster bactericidal rate | minimum inhibitory concentration (MIC) [3]: 4 µM (≈ 5.84 µg/mL) | minimum inhibitory concentration (MIC) ([3]; mixed bacterial solution of Pseudomonas aeruginosa and Staphylococcus aureus): 4 µM (≈ 5.84 µg/mL) | time within which all S. aureus were killed (S. aureus; 1×MIC (4 μM)): ≤ 360 min | survival number of S. aureus (S. aureus; 1×MIC, 300 min): 2000 CFU/mL | survival number of S. aureus (S. aureus; 1×MIC, 360 min): 0 CFU/mL | time within which all S. aureus were killed (S. aureus; 2×MIC (8 μM)): ≤ 360 min | survival number of S. aureus (S. aureus; 2×MIC, 360 min): 0 CFU/mL | bactericidal rate against S. aureus compared with gentamicin (S. aureus; compared with gentamicin): no significant difference in the bactericidal rate | removal effect on the formed biofilm ([4]; concentration 4 μM): 32.16% and 56.39% and 56.88% | removal effect on the formed biofilm ([4]; concentration 8 μM): 28.16% and 29.51% and 42.64% | anti-biofilm activity ([4]; mixed biofilm): good and direct anti-biofilm activity | concentration at which more than 50% of biofilm is removed ([4]; mixed biofilm): 8 μm | concentration at which more than 50% of the biofilm is removed ([4]; mixed biofilm): 8 µM | average particle size of self-assembled nanomicelle [5]: 174.62 nanometers | number of infiltrated inflammatory cells (inflammatory cells): reduced | MIC after proteinase K treatment ([6]; 2 h): 8 µM (≈ 11.7 µg/mL) | decrease of antimicrobial activity due to hydrolysis by proteinase K ([6]; proteinase K treatment, 90 minutes): 50% | MIC before increase under proteinase K treatment ([6]; proteinase K treatment, before 90 minutes): 4 µM (≈ 5.84 µg/mL)

Gentamicin
survival number of P. aeruginosa (P. aeruginosa; 1×MIC, 0 min): 140000 CFU/mL and 126000 CFU/mL and 130000 CFU/mL and 122000 CFU/mL | survival number of P. aeruginosa (P. aeruginosa; 1×MIC, 15 min): 116000 CFU/mL and 120000 CFU/mL and 140000 CFU/mL and 108000 CFU/mL | survival number of P. aeruginosa (P. aeruginosa; 1×MIC, 30 min): 104000 CFU/mL and 126000 CFU/mL and 110000 CFU/mL | survival number of P. aeruginosa (P. aeruginosa; 1×MIC, 60 min): 112000 CFU/mL and 92000 CFU/mL and 106000 CFU/mL and 110000 CFU/mL | survival number of P. aeruginosa (P. aeruginosa; 1×MIC, 120 min): 30000 CFU/mL and 52000 CFU/mL and 54000 CFU/mL | survival number of P. aeruginosa (P. aeruginosa; 1×MIC, 300 min): 0 CFU/mL | survival number of P. aeruginosa (P. aeruginosa; 2×MIC, 0 min): 142000 CFU/mL and 134000 CFU/mL and 122000 CFU/mL and 106000 CFU/mL | survival number of P. aeruginosa (P. aeruginosa; 2×MIC, 15 min): 166000 CFU/mL and 104000 CFU/mL and 136000 CFU/mL and 128000 CFU/mL | survival number of P. aeruginosa (P. aeruginosa; 2×MIC, 30 min): 116000 CFU/mL and 154000 CFU/mL and 126000 CFU/mL and 130000 CFU/mL | survival number of P. aeruginosa (P. aeruginosa; 2×MIC, 60 min): 92000 CFU/mL and 82000 CFU/mL and 70000 CFU/mL and 68000 CFU/mL | survival number of P. aeruginosa (P. aeruginosa; 2×MIC, 240 min): 0 CFU/mL | survival number of S. aureus (S. aureus; 1×MIC, 30 min): 2000 CFU/mL and 4000 CFU/mL | survival number of S. aureus (S. aureus; 1×MIC, 180 min): 2000 CFU/mL and 4000 CFU/mL | survival number of S. aureus (S. aureus; 1×MIC, 360 min): 0 CFU/mL | survival number of S. aureus (S. aureus; 2×MIC, 300 min): 0 CFU/mL | survival number of S. aureus (S. aureus; 2×MIC, 360 min): 0 CFU/mL | removal effect on the formed biofilm ([4]; concentration 2 μM): 90.78% and 99.18% and 100% | removal effect on the formed biofilm ([4]; concentration 4 μM): 67.84% and 74.15% and 105.2663% | removal effect on the formed biofilm ([4]; concentration 8 μM): 86.98% and 97.37% and 78.85% | removal effect on the formed biofilm ([4]; concentration 16 μM): 64.53% and 107.33% and 74.22% | concentration at which more than 50% of the biofilm is removed ([4]; mixed biofilm): 32 µM

KWKWWWKWK-NH2 [Z1, centrally symmetric 9-peptide of tryptophan and lysine]
broad-spectrum antimicrobial activity (various bacteria): good broad-spectrum antimicrobial activity
